Where no end group is shown, it is not given here. The star is where a group is joined. FITC = O=C1OC2(c3ccc(O)cc3Oc3cc(O)ccc32)c2ccc(NC(=S)*)cc21

One experiment deals with MDA-MB-231 cells. Kind of experiment: Drug sensitivity (MTS), MDA-MB-231. In kind it is cell-based. The following applies: Homo sapiens, MDA-MB-231, 48 h, MTS. Here is the method: (§1) Determination the IC50 of BCA cells in response to chemotherapeutic drugs was analyzed by MTS assay. The experiment started from 5 × 10^3 of BCA cells in 100 μl medium that were seeded in 96-well plates for 24 h, then media was changed with different concentrations of new chemotherapeutic drugs [doxorubicin (S1208), paclitaxel (S1150), cisplatin (S1166), 5-fluorouracil (5-FU) (S1209) and gemcitabine (S1714) that were purchased from Selleck Chemicals, Houston, TX, USA] with or without rPN and anti-PN peptide for a further 48 h. After that, cell viability was determined by the MTS assay. Combination index (CI) was calculated by IC50 of combination of drug and PN or anti-PN peptide divided by IC50 of chemotherapeutic drug alone.
(§2) ANOVA test or Student’s t-test were applied for statistical analysis of the experiments. GraphPad Prism® version 7.04 software (GraphPad Software, San Diego, CA, USA) was used in calculation of IC50 values of chemotherapeutic drugs and PASW Statistics software version 18 (SPSS, IBM, Armonk, NY, USA) was used for other analysis. Dose-responses were compared by Holm-Sidak’s multiple comparison test. Mann-Whitney ranked-sum test was used for comparisons between normal and patient serum PN. Chi-square or Fisher’s exact test were used to determine the correlation between PN expression and clinical data in BCA patients. Kaplan-Meier Log-rank test using Kaplan-Meier Plotter online tool (https://kmplot.com/) was performed to determine the correlation between PN expression and survival time of BCA patients by online database. P-values of < 0.05 were used as statistical significance.

For the next experiment, the system named is MCF-7 cells. Kind of experiment: Drug sensitivity (MTS), MCF-7. The format is cell-based. Conditions: Homo sapiens, MCF7, 48 h, MTS. Here is the method:
as §1, §2

Experiment [1] has as its target T1, BSA (Bos taurus, UniProt P02769). Briefly: Dot blot, FITC-peptide binding to BSA. The following applies: BSA negative control, fluorescence. The text has this: (§3) After selecting the best binding sequence of 12-amino acids peptides, 2 types of peptide would be synthesized, plain peptide and peptide conjugated with fluorescein isothiocyanate (FITC). For the synthesis of the latter, a spacer region ([…]) would be added at the C-terminal end of the peptide and FITC was conjugated with the side chain of lysine. Finally, C-terminal amidation would be performed. The synthesis of plain and FITC-labelled anti PN peptides was ordered from Syn Peptide company (Shanghai, China). FITC-labelled anti-PN peptide tested binding affinity to non-denaturing cell lysate of transfected BCA cells and their mock transfected cells and rPN by dot blot analysis. Briefly, 12.5 μg of cell lysate or 500 ng of rPN in 1 μl was applied onto nitrocellulose membrane. The membrane was blocked with 5% BSA followed by peptide incubation at 4 °C overnight and the fluorescent signal was detected the next day using the G:BOX gel documentation system. The checking of anti-PN peptide binding to intact PN-transfected BCA cells was also performed with similar process as immunocytochemistry plus a step of cell membrane permeabilizing after fixation by incubated with 1% Triton X for 1 min at RT. […] The observation was viewed under confocal microscope using laser diode 488 nm.

The subject of another experiment is PN-transfected BCA cells. Kind of experiment: Immunocytochemistry, FITC-peptide binding to permeabilized PN-transfected BCA cells. The following applies: 2 μM FITC-peptide, 1 h at RT, 1% Triton X permeabilized, confocal microscope; PN-transfected vs mock. In kind it is cell-based.
From the text: as §3

The subject of experiment [2] is non-denaturing cell lysate of PN-transfected BCA cells (MDA-MB-231 and MCF-7). Briefly: Dot blot, FITC-peptide binding to non-denaturing cell lysate of PN-transfected BCA cells. Conditions: 12.5 μg cell lysate, 4 °C overnight, fluorescence, vs mock.
From the text: as §3

A further experiment concerns rPN. Kind of experiment: Dot blot, FITC-peptide binding to rPN. Conditions: 500 ng rPN, 4 °C overnight, fluorescence.
From the text: as §3

For experiment [3], the target named is T1, BSA. Kind of experiment: Isothermal titration calorimetry, binding to BSA (negative control). Conditions: ITC. An excerpt:
The physical properties of this peptide would be determined by an online tool (https://www.thermofisher.com) (Thermo Fisher Scientific). Structure of this peptide and the binding properties to PN would be predicted by PEP-FOLD3 [34] and pepATTRACT [35] tools from RPBS Web Portal (https://bioserv.rpbs.univ-paris-diderot.fr) using PN 3D-structure from RCSB PDB database (https://www.rcsb.org/structure/5YJG). […] The procedure followed the instructions for the machine. The results would be determined by the measurement of the exothermic energy after intermittent injection into the cell compartment and reported as the binding affinity constant (KD).
(In general: ITC needs no label: the signal is the heat of the interaction.)

T1 sequence (P02769 25-607): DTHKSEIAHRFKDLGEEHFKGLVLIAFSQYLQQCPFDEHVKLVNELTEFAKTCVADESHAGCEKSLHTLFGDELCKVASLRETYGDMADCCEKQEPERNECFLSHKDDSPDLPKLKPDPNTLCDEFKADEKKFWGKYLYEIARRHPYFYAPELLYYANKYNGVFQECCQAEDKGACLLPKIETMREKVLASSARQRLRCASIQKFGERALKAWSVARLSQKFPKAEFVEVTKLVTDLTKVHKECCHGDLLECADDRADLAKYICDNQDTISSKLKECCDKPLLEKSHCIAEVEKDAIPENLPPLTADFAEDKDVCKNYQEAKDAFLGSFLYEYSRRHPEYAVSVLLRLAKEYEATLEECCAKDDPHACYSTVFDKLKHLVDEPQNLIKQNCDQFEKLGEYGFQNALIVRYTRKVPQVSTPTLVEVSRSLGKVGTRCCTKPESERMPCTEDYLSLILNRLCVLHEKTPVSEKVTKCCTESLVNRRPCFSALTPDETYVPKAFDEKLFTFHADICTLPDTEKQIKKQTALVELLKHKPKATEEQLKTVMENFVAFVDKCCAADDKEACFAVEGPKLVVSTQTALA

Turning to `COc1cccc2c1C(=O)c1c(O)c3c(c(O)c1C2=O)C[C@@](O)(C(=O)CO)C[C@@H]3O[C@H]1C[C@H](N)[C@H](O)[C@H](C)O1` [doxorubicin], the IC50 in the experiment on MDA-MB-231 cells (doxorubicin with anti-PN peptide, PN-transfected MDA-MB-231, 48 h, P-value = 0.002) amounted to 797 nM; in the experiment with MDA-MB-231 cells (doxorubicin with anti-PN peptide, mock transfected MDA-MB-231, 48 h, P-value = 0.932), 706 nM; in the experiment on MDA-MB-231 cells (doxorubicin, PN-transfected MDA-MB-231, 48 h, P-value < 0.001 vs mock), 1090 nM; with MDA-MB-231 cells (doxorubicin, anti-PN peptide treated MDA-MB-231 without rPN, 48 h, P-value = 0.870) it was 896 nM; with MDA-MB-231 cells (doxorubicin, mock transfected MDA-MB-231, 48 h), 710 nM; in the experiment with MDA-MB-231 cells (doxorubicin, rPN + anti-PN peptide treated MDA-MB-231, 48 h, P-value = 0.038), 1300 nM. Besides, the IC50 was found to be 1990 nM with MDA-MB-231 cells (doxorubicin, rPN-treated MDA-MB-231, 48 h, P-value = 0.024); 845 nM with MDA-MB-231 cells (doxorubicin, untreated control MDA-MB-231 (rPN treatment experiment), 48 h); 970 nM in the experiment with MCF-7 cells (doxorubicin with anti-PN peptide, PN-transfected MCF-7, 48 h, P-value = 0.007); 1440 nM with MCF-7 cells (doxorubicin, PN-transfected MCF-7, 48 h, P-value = 0.013 vs mock); 1040 nM in the experiment with MCF-7 cells (doxorubicin, anti-PN peptide treated MCF-7 without rPN, 48 h, P-value = 0.558); 1070 nM in the experiment with MCF-7 cells (doxorubicin, mock transfected MCF-7, 48 h). Further, the IC50 with MCF-7 cells (doxorubicin, rPN + anti-PN peptide treated MCF-7, 48 h, P-value = 0.038) is 1270 nM; in the experiment on MCF-7 cells (doxorubicin, rPN-treated MCF-7, 48 h, P-value = 0.007), 1460 nM; in the experiment with MCF-7 cells (doxorubicin, untreated control MCF-7 (rPN treatment experiment), 48 h), 1050 nM.

As to “FITC-labelled anti-PN peptide (TFATHGKHWAAPGGGSCK(FITC)-NH2; N-terminus assumed; SMILES C[C@H](NC(=O)[C@H](Cc1c[nH]c2ccccc12)NC(=O)[C@H](Cc1c[nH]cn1)NC(=O)[C@H](CCCCN)NC(=O)CNC(=O)[C@H](Cc1c[nH]cn1)NC(=O)[C@@H](NC(=O)[C@H](C)NC(=O)[C@H](Cc1ccccc1)NC(=O)[C@@H](N)[C@@H](C)O)[C@@H](C)O)C(=O)N[C@@H](C)C(=O)N1CCC[C@H]1C(=O)NCC(=O)NCC(=O)NCC(=O)N[C@@H](CO)C(=O)N[C@@H](CS)C(=O)N[C@@H](CCCCNC(=S)Nc1ccc2c(c1)C(=O)OC21c2ccc(O)cc2Oc2cc(O)ccc21)C(N)=O)”, in the experiment with BSA [1], the “Peptide binding to BSA” value was “no signal in BSA”. Also, in the experiment with PN-transfected BCA cells, the “Peptide binding in permeabilized cells” value was “confirmed by immunocytochemistry staining in permeabilized cells”. Also, in experiment [2], the “Peptide binding to PN-transfected cell lysate” value is given as “higher in both PN-transfected BCA cells compared with their mock control cells”. Moreover, in the experiment on rPN, the “Peptide binding to rPN” value is recorded as “markedly increased in rPN”.

Consider TFATHGKHWAAP [anti-PN peptide], for which, on BSA [3], the “Binding affinity to BSA” value is recorded as “could not be determined in BSA”.

As a reminder, the IC50 is the point on the concentration scale where inhibition reaches its midpoint.

The record behind these values is article PMC7807878, “Development of an engineered peptide antagonist against periostin to overcome doxorubicin resistance in breast cancer” (BMC Cancer, 2021).
